Active and inactive are the calls of the source. No cut-off for these calls is given here.
Columns and labels:
[1] = test system: Hepatovirus A; assay: Antiviral activity against HAV 20 ug/10^5 cells by plaque infectivity assay
[2] = test system: Hepatovirus A; assay: Antiviral activity against HAV 10 ug/10^5 cells by plaque infectivity assay; assay type: functional, organism-based
[3] = test system: Human alphaherpesvirus 1; assay: Antiviral activity against HSV1 10 ug/10^5 cells by plaque infectivity assay; assay type: functional, organism-based
[4] = test system: Human alphaherpesvirus 1; assay: Antiviral activity against HSV1 20 ug/10^5 cells by plaque infectivity assay; assay type: functional, organism-based

## CCOC(=O)c1cnn(-c2ncnc3sc4c(c23)-c2ccccc2CC4)c1N
[1]
  Activity: Active

## N#Cc1cnn(-c2ncnc3sc4c(c23)-c2ccccc2CC4)c1NC(=S)NC(=O)c1ccccc1
[2]
  Activity: Active
[3]
  Activity: Active
[4]
  Activity: Active

## COC(CSc1ncnc2c1cnn2-c1ncnc2sc3c(c12)-c1ccccc1CC3)OC
[3]
  Activity: Active

## COCCSc1ncnc2c1cnn2-c1ncnc2sc3c(c12)-c1ccccc1CC3
[3]
  Activity: Active
[4]
  Activity: Active

## N#Cc1cnn(-c2ncnc3sc4c(c23)-c2ccccc2CC4)c1N
[2]
  Activity: Active
[1]
  Activity: Active
